Data set [1] can be described thus: ATP-based cytotoxicity assay (Cmax allowing 100% viability). Conditions: human, human embryonic pluripotent stem cell line HS420; HS420 cells; ATP quantification assay; read-out: Cmax (in vitro concentration allowing 100% of survival). The source says: Multiple combinations between Noggin, LDN193189 and SB431542 are commonly used and generally called “dualSMAD inhibition”. It represents to date the most widely used way to induce early neural specification of PSC in vitro. Described herein is the report of a differentiation approach that excludes “dual Smad inhibition,” and instead achieves differentiation through the use of 5 chemicals inhibiting ALK to induce neural specification of pluripotent stem cells in vitro: ML347, DMH1, DMH2, K02288 and A8301 (Table 1). Table 1 indicates their name, PubChem ID and toxicity on the human embryonic Pluripotent Stem Cell line (ePSC) HS420, by using an ATP-based cytotoxicity assay. The Cmax was defined as the maximal concentration in vitro allowing 100% of viability of cells.

Data set [2] has as its system human embryonic stem cell line HS420. As to the kind of experiment: Morphology of embryonic stem cells after one week of exposure in neural induction medium. Format: cell-based. Conditions: 0.2 μM; for morphological modifications of embryonic stem cells: vs control (DMSO). The procedure: (§1) For neural differentiation, HS420 cells at 50% of confluency were passaged in new laminin 521-coated tissue culture plates at the density of 10000 cells/cm^2 in Stemflex medium supplemented with ROCK inhibitor (Y27632, abcam) at 10 μM. After 24 h, cells were submitted to a medium change, the Stemflex being replaced by the following neural induction medium: Neurobasal (Thermofisher) supplemented with penicillin/streptomycin 100 U/ml (Invitrogen), B-27 supplement (Thermofisher), L-glutamine 2 mM (Thermofisher). Cells were passaged at day 8 and subsequent confluency (every weeks), by the use of Accutase (Thermofisher) and replated on polyornithine/Matrigel (Sigma)-coated tissue culture flasks at the density of 50 000/cm^2. • 3. Immunocytochemistry
(§2) To study the effects of ML347, DMH1, DMH2, K02288 and A8301 on PSC, the human embryonic stem cell line HS420 was used. Cells were plated at a low density on laminin 521 (10000/cm^2) in their maintenance medium (Stemflex) and exposed 24 h later to ML347, DMH1 or DMH2 or K02288 or A8301, during one week, at the concentration of 0.2 μM in a minimal medium suited for early neural induction. Once confluent (after 8 days), cells were passaged and plated in the same medium, without neural inductors, at the density of 50000/cm^2 polyornithine/Matrigel—coated tissue culture flasks for maturation (FIG. 2).

The test system is the same in data set [3]. Briefly: Immunofluorescent staining for nestin, Pax-6, Sox-1 at day 8. The following applies: 0.2 μM. Format: cell-based. As for the experimental part: Cells on glass coverslips were fixed with 1 mL of 0.5% paraformaldehyde in PBS for 30 minutes at room temperature. Cells were then washed three times with 1 mL of PBS and incubated overnight with primary antibodies in PBS containing 0.1% Triton X-100 (Sigma), and 1% bovine serumalbumine (Sigma). Cells were washed three times with 1 mL of PBS before incubation for 1 h30 min with the secondary antibody in PBS containing 0.1% Triton X-100 and 1% bovine serumalbumine. Cells were washed three times with PBS before exposure to DAPI 300 nM in PBS (Sigma) for 15 minutes at room temperature. After three washes in PBS, cells were rinsed with water and mounted in glass slides using Fluorsave reagent (Merck Millipore). • 4. Quantitative RT PCR
as §2, with “2). […]” for “2).”

Data set [4] deals with HS420 cells. As to the kind of experiment: Q-RT-PCR of regionalization markers (Otx-2, Lmxla, FoxA2, FoxG1, Msx-1) at day 8. It is filed as cell-based, human. The following applies: 0.2 uM, day 8, normalized to vehicle. As for the experimental part: FIG. 6: HS420 cells were exposed for 8 days to dual SMAD inhibition or ALK inhibitors at the concentration of 0.2 μM. Regionalization markers were measured by Q-RT-PCR and normalized with control conditions (no compounds, vehicle alone).
(§3) Quantitative PCR was performed with Tecan Freedom Evo by using SYBR green fluorescence. cDNA was produced from RNA by using the prime script RT reagent kit (Takara). All primers were diluted at a concentration of 0.86 μM, and a master mix was used (Power SYBR Green Master Mix, Thermo Fisher Scientific).
A possible impact of ALK inhibitors on early neural specification was analysed after 8 days of differentiation and compared with dual SMAD inhibition. Several markers of early specification, focusing on forebrain/midbrain regionalization were measured by Q-RT-PCR at day 8 in neural induction medium. The following markers were tested: Otx-2 which is an anterior marker (forebrain and midbrain), Lmxla which is expressed in dorsal and ventral midbrain, FoxA2 which is a ventral marker in forebrain, midbrain and hindbrain. Was also tested the forebrain FoxG1 and Msx-1 which is more specific for early dopaminergic differentiation. Several experiments were performed (n=3) and values were normalized as the percentage of control (=no compound, vehicle lone). At this early stage (day 8), FoxA2 and Msx-1 were not detected by PCR in all conditions, showing the absence of acquisition of a ventral and dopaminergic identity. […] The Hindbrain marker HoxA2 was not detected at this stage (not shown), showing the absence of a hindbrain identity (not shown). […] DMH1 and DMH2 reduce the forebrain identity, a useful prerequisite for dopaminergic specification.

In data set [5] the test system is HS420 cells. Briefly: Neuronal maturation after passage (nestin-, βIII-tubulin+ cells). Conditions: cells previously exposed to ALKi 0.2 μM, passaged at day 8, maturation. It is filed as cell-based, human. As for the experimental part: FIG. 7: Neuronal maturation f HS420 cells (one month) exposed to ALKi versus dualSMAD inhibition.
as §1
At confluency (occurring in these conditions at day 8), cells were passaged at a very low density with Accutase and polyornithine/Matrigel-coated dished for neuronal maturation in appropriated medium. Neuronal cells (nestin− and βIII-tubulin+ cells with a neuritic morphology) were present in cells previously exposed to the four compounds, in contrast to control conditions from which cells reduced progressively their number, with only few neuronal cells in the plate (FIG. 7).

The subject of data set [6] is human embryonic stem cell line HS420. Briefly: Q-RT-PCR of neuroectodermal markers (Pax-6, Sox-1, nestin) at day 8. It is filed as cell-based. As for the experimental part: FIG. 5: Quantification of neuroectodermal markers following exposition of HS420 cells one week with ALKi or dualSMAD inhibition. Results are expressed as the percentage of control condition (DMSO) in three independent experiments. The bars in each bar graph represent, from left to right, data from DMH-1, DMH-2, K02288, A8301, and LDN+SB.
as §3
Q-RT-PCR experiments were performed to provide a quantitative description of neural-inducing effects of the 4 compounds (in three independent experiments).

`Cc1cccc(-c2nn(C(=S)Nc3ccccc3)cc2-c2ccnc3ccccc23)n1` [A8301, 3-(6-Methylpyridin-2-yl)-N-phenyl-4-(quinolin-4-yl)-1H-pyrazole-1-carbothioamide]: the Cmax in data set [1] stood at 5180 ± 1780 nM. Besides, in data set [2], the “epithelial-like cells spreading between the colonies” value was “invaded as a monolayer the free tissue culture plate between the colonies” and the “morphological modifications of embryonic stem cells” value (“morphological modifications” for short) is “showed morphological modifications”. Further, the “expression of nestin, Pax-6 and Sox-1 by immunofluorescent staining” value in data set [3] is “homogeneously expressed nestin, Pax-6 and Sox-1”. Moreover, the “FoxG1 expression (forebrain specification)” value in data set [4] is recorded as “upregulation of FoxG1”. In addition, the “neural induction with generation of cells able to mature into neurons” value (“neural induction with generation” below) in data set [5] is “favoured neural induction with the generation of cells able to be further maturated into neurons”.
With `CC(C)Oc1ccc(-c2cnc3c(-c4ccnc5ccccc45)cnn3c2)cc1` [DMH1, 4-[6-(4-Propan-2-yloxyphenyl)pyrazolo[1,5-a]pyrimidin-3-yl]quinoline], the Cmax in data set [1] worked out at 970 ± 460 nM. Moreover, in data set [2], the “morphological modifications” value is “showed morphological modifications”. In data set [4], the “FoxG1 expression (forebrain specification)” value is reported as “reduced FoxG1 expression”. In addition, in data set [5], the “neural induction with generation” value is reported as “favoured neural induction with the generation of cells able to be further maturated into neurons”.
On the same counts, the results for `c1ccc2c(-c3cnn4cc(-c5ccc(OCCN6CCOCC6)cc5)cnc34)ccnc2c1` [DMH2, 4-(2-(4-(3-(Quinolin-4-yl)pyrazolo[1,5-a]pyrimidin-6-yl)phenoxy)ethyl)morpholine] are 580 ± 200 nM, “showed morphological modifications”, “reduced FoxG1 expression” and “favoured neural induction with the generation of cells able to be further maturated into neurons”.
For the molecule `COc1cc(-c2cc(-c3cccc(O)c3)cnc2N)cc(OC)c1OC` [K02288, 3-[6-Amino-5-(3,4,5-Trimethoxyphenyl)pyridin-3-Yl]phenol], in data set [1], the Cmax was found to be 530 ± 250 nM. In addition, in data set [2], the “epithelial-like cells spreading between the colonies” value was “invaded as a monolayer the free tissue culture plate between the colonies” and the “morphological modifications” value was “showed morphological modifications”. Further, the “expression of nestin, Pax-6 and Sox-1 by immunofluorescent staining” value in data set [3] was “homogeneously expressed nestin, Pax-6 and Sox-1”. For the same molecule, in data set [5], the “neural induction with generation” value is “favoured neural induction with the generation of cells able to be further maturated into neurons”.
On to `c1ccc2c(-c3cnn4cc(-c5ccc(N6CCNCC6)cc5)cnc34)ccnc2c1` [LDN193189], for which the “expression of Pax-6, Sox-1 and nestin mRNAs compared to control” value in data set [6] (0.5 μM) was “increased the expression of Pax-6, Sox-1 and nestin mRNAs”.
With `COc1ccc(-c2cnc3c(-c4cccc5ncccc45)cnn3c2)cc1` [ML347, 5-[6-(4 Methoxyphenyl)pyrazolo[1,5-a]pyrimidin-3-yl]quinoline], the Cmax in data set [1] amounted to 580 ± 200 nM.
For `NC(=O)c1ccc(-c2nc(-c3ccc4c(c3)OCO4)c(-c3ccccn3)[nH]2)cc1` [SB431542, 4-(4-(Benzo[d][1,3]dioxol-5-yl)-5-(pyridin-2-yl)-1H-imidazol-2-yl)benzamide], in data set [6] (alone at 10 μM), the “Sox-1 mRNA” value is “moderate increase” and the “expression of the three markers (Pax-6, Sox-1, nestin mRNAs)” value is “did not increase the three markers”.

B1: Noggin: Noggin protein, BMP inhibitor, provided by Miltenyi Biotec (ref 130-103-456) (protein, UniProt Q13253 28-232, looked up)
Noggin: QHYLHIRPAPSDNLPLVDLIEHPDPIFDPKEKDLNETLLRSLLGGHYDPGFMATSPPEDRPGGGGGAAGGAEDLAELDQLLRQRPSGAMPSEIKGLEFSEGLAQGKKQRLSKKLRRKLQMWLWSQTFCPVLYAWNDLGSRFWPRYVKVGSCFSKRSCSVPEGMVCKPSKSVHLTVLRWRCQRRGGQRCGWIPIQYPIISECKCSC
Consider B1, for which the “effect on neuroectodermal marker mRNAs” value in data set [6] (alone at 100 ng/ml) was “moderate effect”.

These data come from patent US20230392115A1, “METHODS FOR MAKING AND USING DIFFERENTIATED NEURAL CELLS” (Research Development Foundation, priority 2020, published 2023).
